One experiment has as its target T1, 5-HT1A (Homo sapiens, UniProt P08908).
T1 sequence (P08908 1-422): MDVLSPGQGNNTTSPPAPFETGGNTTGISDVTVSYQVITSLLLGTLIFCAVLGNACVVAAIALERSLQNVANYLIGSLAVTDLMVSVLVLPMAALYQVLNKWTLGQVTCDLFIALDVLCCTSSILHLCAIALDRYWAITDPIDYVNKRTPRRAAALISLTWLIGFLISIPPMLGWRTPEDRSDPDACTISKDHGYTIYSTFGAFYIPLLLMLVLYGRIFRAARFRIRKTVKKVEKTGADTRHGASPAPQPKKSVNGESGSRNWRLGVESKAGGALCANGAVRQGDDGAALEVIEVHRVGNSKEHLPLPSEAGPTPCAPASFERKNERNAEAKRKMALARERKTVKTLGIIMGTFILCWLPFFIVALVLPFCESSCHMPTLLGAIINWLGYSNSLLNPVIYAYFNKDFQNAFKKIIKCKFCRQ
The experiment in a line: radioligand binding at 5-HT1A. The settings on record: 50 nM; radioligand [3H]8-OH-DPAT. The procedure:
(§1) In vitro pharmacological assessment of this compound (N-(2-(1H-indol-3-yl)ethyl)-2-(1H-indol-3-yl)-N-methylethan-1-amine) was performed using radioligand binding at various serotonergic and sigma receptors. The results appear in table 2 below

A further experiment addresses 5-HT2A (Homo sapiens, UniProt P28223). Description: radioligand binding at 5-HT2A. The settings on record: 50 nM; radioligand [3H]ketanserin. The method, then:
as §1

The next experiment has as its target 5-HT2B (Homo sapiens, UniProt P41595). Description: radioligand binding at 5-HT2B. The settings on record: 50 nM; radioligand [3H]mesulergine. The procedure:
as §1

For the next experiment, the target named is T2, 5-HT2C (Homo sapiens, UniProt P28335).
T2 sequence (P28335 33-458): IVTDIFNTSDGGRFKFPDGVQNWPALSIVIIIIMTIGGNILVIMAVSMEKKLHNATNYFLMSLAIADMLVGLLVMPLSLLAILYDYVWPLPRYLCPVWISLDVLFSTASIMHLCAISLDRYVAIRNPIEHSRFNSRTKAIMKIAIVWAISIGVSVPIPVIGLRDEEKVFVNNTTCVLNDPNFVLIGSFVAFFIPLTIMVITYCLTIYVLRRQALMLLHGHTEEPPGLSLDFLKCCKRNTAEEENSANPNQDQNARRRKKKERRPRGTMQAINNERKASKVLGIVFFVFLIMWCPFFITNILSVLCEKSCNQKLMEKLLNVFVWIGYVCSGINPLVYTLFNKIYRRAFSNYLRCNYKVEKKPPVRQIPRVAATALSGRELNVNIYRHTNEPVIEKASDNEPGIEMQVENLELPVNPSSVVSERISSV
Description: radioligand binding at 5-HT2C. The settings on record: 50 nM; radioligand [3H]mesulergine. The procedure: as §1

The target of a further experiment is 5-HT6 (Homo sapiens, UniProt P50406). The experiment in a line: radioligand binding at 5-HT6. The settings on record: 50 nM; radioligand [3H]LSD. The procedure:
as §1

Another experiment addresses 5-HT7 (Homo sapiens, UniProt P34969). The experiment in a line: radioligand binding at 5-HT7. The settings on record: 50 nM; radioligand [3H]LSD. The procedure: as §1
The next experiment deals with Sigma 1 (Homo sapiens, UniProt Q99720). The experiment in a line: radioligand binding at Sigma 1. The settings on record: 500 nM; radioligand [3H](+)pentazocine. The procedure: as §1
In another experiment the target is Sigma 2 (Homo sapiens, UniProt Q5BJF2). The experiment in a line: radioligand binding at Sigma 2. The settings on record: 500 nM; radioligand [3H]DTG + (+)pentazocine. The procedure: as §1
Sequence of Sigma 2 (Q5BJF2 whole entry): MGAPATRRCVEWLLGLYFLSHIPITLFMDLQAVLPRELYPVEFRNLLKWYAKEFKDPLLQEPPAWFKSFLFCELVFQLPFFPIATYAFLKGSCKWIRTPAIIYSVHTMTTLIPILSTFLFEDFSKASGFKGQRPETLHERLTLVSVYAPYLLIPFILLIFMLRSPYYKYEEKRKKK

Sequence of 5-HT2A (P28223 whole entry): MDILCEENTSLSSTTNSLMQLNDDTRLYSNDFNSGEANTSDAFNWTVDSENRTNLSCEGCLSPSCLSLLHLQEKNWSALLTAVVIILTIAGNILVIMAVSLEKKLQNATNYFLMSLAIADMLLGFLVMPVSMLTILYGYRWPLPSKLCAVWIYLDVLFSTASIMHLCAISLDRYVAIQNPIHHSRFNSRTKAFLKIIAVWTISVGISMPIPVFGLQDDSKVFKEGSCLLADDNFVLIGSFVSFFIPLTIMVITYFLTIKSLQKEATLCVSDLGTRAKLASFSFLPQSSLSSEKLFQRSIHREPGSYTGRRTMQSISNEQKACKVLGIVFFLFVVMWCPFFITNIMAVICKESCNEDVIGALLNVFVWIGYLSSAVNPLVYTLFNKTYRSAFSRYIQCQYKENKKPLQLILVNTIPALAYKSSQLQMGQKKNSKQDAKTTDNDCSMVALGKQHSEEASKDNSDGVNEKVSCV
Sequence of 5-HT2B (P41595 whole entry, species assumed): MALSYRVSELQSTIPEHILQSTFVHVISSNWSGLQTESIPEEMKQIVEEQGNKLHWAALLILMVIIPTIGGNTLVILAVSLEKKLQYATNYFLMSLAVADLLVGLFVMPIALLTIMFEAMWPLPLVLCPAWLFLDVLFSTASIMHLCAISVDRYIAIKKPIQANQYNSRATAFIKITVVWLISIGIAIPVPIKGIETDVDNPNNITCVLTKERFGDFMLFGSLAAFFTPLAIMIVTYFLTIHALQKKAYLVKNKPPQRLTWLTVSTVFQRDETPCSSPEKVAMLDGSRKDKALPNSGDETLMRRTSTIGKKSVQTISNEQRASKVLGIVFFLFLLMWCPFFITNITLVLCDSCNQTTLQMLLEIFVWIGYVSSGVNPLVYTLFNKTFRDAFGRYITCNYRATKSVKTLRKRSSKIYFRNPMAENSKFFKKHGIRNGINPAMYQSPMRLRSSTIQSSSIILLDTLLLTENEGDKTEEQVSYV
Sequence of Sigma 1 (Q99720 whole entry): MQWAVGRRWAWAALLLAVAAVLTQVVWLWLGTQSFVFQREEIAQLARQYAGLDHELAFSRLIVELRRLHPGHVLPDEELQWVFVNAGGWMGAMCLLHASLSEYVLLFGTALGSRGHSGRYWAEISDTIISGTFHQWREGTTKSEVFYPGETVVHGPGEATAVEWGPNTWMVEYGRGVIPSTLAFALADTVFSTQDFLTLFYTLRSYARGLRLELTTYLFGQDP
Sequence of 5-HT7 (P34969 whole entry, species assumed): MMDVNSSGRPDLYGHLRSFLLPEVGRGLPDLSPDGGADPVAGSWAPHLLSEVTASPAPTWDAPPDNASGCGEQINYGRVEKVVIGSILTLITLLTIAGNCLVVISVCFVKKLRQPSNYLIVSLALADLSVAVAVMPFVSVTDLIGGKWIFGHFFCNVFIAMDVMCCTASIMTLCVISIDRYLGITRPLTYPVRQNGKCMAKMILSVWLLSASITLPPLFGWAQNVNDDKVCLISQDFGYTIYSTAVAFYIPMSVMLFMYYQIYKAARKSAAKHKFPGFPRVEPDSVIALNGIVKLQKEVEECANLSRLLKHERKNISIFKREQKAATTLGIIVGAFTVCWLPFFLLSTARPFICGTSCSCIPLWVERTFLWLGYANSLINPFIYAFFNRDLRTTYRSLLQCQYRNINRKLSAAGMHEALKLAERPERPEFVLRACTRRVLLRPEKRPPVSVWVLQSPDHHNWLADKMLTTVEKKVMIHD
Sequence of 5-HT6 (P50406 whole entry, species assumed): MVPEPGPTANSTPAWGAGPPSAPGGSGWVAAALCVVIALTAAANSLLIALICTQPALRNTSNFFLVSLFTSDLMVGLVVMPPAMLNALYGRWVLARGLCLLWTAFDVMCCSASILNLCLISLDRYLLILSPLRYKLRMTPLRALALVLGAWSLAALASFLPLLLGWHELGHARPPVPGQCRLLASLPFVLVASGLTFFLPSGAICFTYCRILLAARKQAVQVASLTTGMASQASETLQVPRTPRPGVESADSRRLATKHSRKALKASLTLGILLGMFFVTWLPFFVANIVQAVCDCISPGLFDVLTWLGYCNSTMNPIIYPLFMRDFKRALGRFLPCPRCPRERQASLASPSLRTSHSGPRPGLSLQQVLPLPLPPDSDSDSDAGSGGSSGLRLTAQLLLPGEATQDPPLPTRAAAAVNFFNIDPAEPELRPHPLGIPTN

Usually inhibition stands for the share of the control response that was lost under treatment. As for `CN(CCc1c[nH]c2ccccc12)CCc1c[nH]c2ccccc12` [Example 1, N-(2-(1H-indol-3-yl)ethyl)-2-(1H-indol-3-yl)-N-methylethan-1-amine], the inhibition at 0.05 µM at 5-HT1A was 70.9%; on 5-HT2A it was 82.7%; on 5-HT2B it was 96.8%; on 5-HT2C it was 72.8%; at 5-HT6, 26.3%; at 5-HT7, 79.7%. In addition, the inhibition at 0.5 µM on Sigma 1 turned out to be 21.7%; at Sigma 2 it was 26.1%.

Values taken from US20250382266A1, “5-HT2A RECEPTOR LIGANDS” (Psilera Inc., priority 2022, published 2025).
